Measurements taken from US12187773B2, “Modified GIP peptide analogues” (Antag Therapeutics ApS, priority 2018, dated 2025).
Where a SMILES comes first, the peptide text is derived from it. Where no end group is shown, it is not given here. The star is where a group is joined. C16 diacid = O=C(O)CCCCCCCCCCCCCCC(=O)*

Experiments:
Format in all cases: cell-based
human GIP receptor [1] = target: T1, human GIP receptor (Homo sapiens, UniProt P48546); assay: cAMP accumulation, agonism (DiscoveRx HitHunter cAMP XS assay); parameters: host or cells: COS-7 (transient, calcium phosphate; pCMV-Script vector)
T1 sequence (P48546 22-466): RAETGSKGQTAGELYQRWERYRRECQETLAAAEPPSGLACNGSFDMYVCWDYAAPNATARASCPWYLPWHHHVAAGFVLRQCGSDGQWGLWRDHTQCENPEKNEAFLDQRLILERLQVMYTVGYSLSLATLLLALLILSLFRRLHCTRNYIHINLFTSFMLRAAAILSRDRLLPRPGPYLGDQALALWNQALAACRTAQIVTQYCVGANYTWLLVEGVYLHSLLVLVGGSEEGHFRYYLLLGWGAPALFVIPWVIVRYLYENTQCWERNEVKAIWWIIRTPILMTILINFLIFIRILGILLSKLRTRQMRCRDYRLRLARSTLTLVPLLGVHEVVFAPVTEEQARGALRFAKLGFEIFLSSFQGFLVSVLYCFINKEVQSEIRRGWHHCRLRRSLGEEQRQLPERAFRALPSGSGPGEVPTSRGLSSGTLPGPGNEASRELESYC
Experimental: (§1) Transient transfected COS-7 cells expressing the human GIP receptor were seeded in white 96-well plates with a density of 3.5*10^4/well. The day after, the cells were washed twice with Hepes buffered saline (HBS) buffer and incubated with HBS and 1 mM 3-isobutyl-1-methylxanthine (IBMX) for 30 min at 37° C. To test for agonistic properties, ligands were added and incubated for 30 min at 37° C. In order to test for antagonistic properties, the cells were preincubated with the antagonists for 10 min prior to the addition of the agonist and subsequent incubated for 20 additional min. The HitHunter™ cAMP XS assay (DiscoveRx) was carried out according to the manufacturer's instructions.
(§2) In order to develop a GIP receptor antagonist with improved antagonistic properties, individual amino acid substitutions were conducted on GIP(3-30)NH2 and in particular at positions: 16, 18, 30 or 3, 16, 18, 30. The obtained peptides were lipidated at position 18 directly or via a linker. Both the agonistic and antagonistic profiles of the compounds were tested in cAMP accumulation experiments done in transiently transfected COS-7 cells expressing the human GIP receptor. To investigate if these mutated analogues still retained their antagonistic properties, their ability to inhibit a GIP-mediated cAMP response corresponding to 50-80% of maximum activation was examined.

human GIP receptor [2] = target: T1, human GIP receptor; assay: cAMP agonism (CisBio cAMP Dynamic 2 HTRF assay)
Experimental: To test for agonistic properties at the GIP receptor, compounds were diluted and added to cells as described above and incubated for 30 min at 37° C. The resulting increase in intracellular cAMP was determined using the CisBio cAMP Dynamic 2 HTRF Assay Kit as described above.

human GIP receptor [3] = target: T1, human GIP receptor; assay: cAMP accumulation, antagonism (DiscoveRx HitHunter cAMP XS assay); parameters: host or cells: COS-7 (transient, calcium phosphate; pCMV-Script vector); conditions: Table 2, truncated GIP antagonists
Experimental: as §1, §2

human GIP receptor [4] = target: T1, human GIP receptor; assay: cAMP antagonism (CisBio cAMP Dynamic 2 HTRF assay); parameters: pCMV-Script vector; conditions: Table 1C; CisBio; HEK-293 cells
Experimental: The in vitro functional activity of compounds towards human GIP receptor can also be determined in HEK-293 cells transiently expressing the receptor. On the day of the assay, cells were resuspended in HBSS buffer (Gibco, 14025-50) supplemented with 20 mM HEPES (Gibco, 15630-106), 0,1% Pluronic F-68 (Gibco, 24040-032) and 0,1% casein (Sigma, C4765), and plated in 384-well plates at a density of 5000 cells/well. The GIP peptide analogues of the present disclosure were diluted in HBSS buffer supplemented with 20 mM HEPES, 0,1% pluronic, 0,1% casein and 500 uM IBMX. […] The resulting decrease in intracellular cAMP was quantitatively determined using the CisBio cAMP Dynamic 2 HTRF Assay Kit. The assay is based on a competition between native cAMP produced by cells and cAMP labeled with the dye d2 for binding to a cryptate labeled antibody. The specific signal (i.e. energy transfer signal) is inversely proportional to the concentration of cAMP in the sample.
The cAMP-d2 conjugate and the antibody anti-cAMP-Cryptate, both diluted in lysis buffer provided in the kit, were added to the cells according to the manufacturer's protocol. The resulting competitive assay was incubated for 60 minutes at room temperature, and the signal was detected by using a PerkinElmer Envision® instrument with excitation at 320 nm and emission at 665 nm and 620 nm. The HTRF ratio (emission at 665 nm/620 nm*10,000) is inversely proportional to the amount of cAMP present and is converted to nM cAMP per well using a cAMP standard curve. The dose-response curves were fitted using the non-linear regression analysis (four-logistic parameter equation) in GraphPad Prism, whereby pIC50 values were estimated.

[5] = HEK293, read-out: cAMP agonism, % Efficacy, Table 1C, HEK-293 cells

Compound	Emax (human GIP receptor [2]; [5]) [%]	cAMP antagonism, % inhib (human GIP receptor [3]) [%]	cAMP antagonism, % inhib (human GIP receptor [4]) [%]	further results
CC[C@H](C)[C@H](NC(=O)[C@H](Cc1ccccc1)NC(=O)[C@H](C)NC(=O)CNC(=O)[C@@H](N)CCC(=O)O)C(=O)N[C@@H](CO)C(=O)N[C@@H](CC(=O)O)C(=O)N[C@@H](Cc1ccc(O)cc1)C(=O)N[C@@H](C)C(=O)N[C@@H](C)C(=O)N[C@@H](C)C(=O)N[C@@H](CCSC)C(=O)N[C@@H](CC(=O)O)C(=O)N[C@@H](CCCCN)C(=O)N[C@H](C(=O)N[C@@H](CCCCNC(=O)CCCCCCCCCCCCCCC(=O)O)C(=O)N[C@@H](CCC(N)=O)C(=O)N[C@@H](CCC(N)=O)C(=O)N[C@@H](CC(=O)O)C(=O)N[C@@H](Cc1ccccc1)C(=O)N[C@H](C(=O)N[C@@H](C)C(=O)N[C@@H](Cc1c[nH]c2ccccc12)C(=O)N[C@@H](CC(C)C)C(=O)N[C@@H](CC(C)C)C(=O)N[C@@H](C)C(=O)N[C@@H](CCC(N)=O)C(=O)N[C@@H](CCCCN)C(N)=O)C(C)C)[C@@H](C)CC [AT483] (H-EGAFISDYAAAMDKIK(C16 diacid)QQDFVAWLLAQK-NH2; N-terminus assumed)				Emax (human GIP receptor [1]; Table 1B, DiscoveRx, COS-7 cells, read-out: cAMP agonism, Emax): 8%; Emax (human GIP receptor [2]; HEK293, Table 1C, HEK-293 cells, read-out: cAMP agonism, % Efficacy): 0%
CC[C@H](C)[C@H](NC(=O)[C@H](CO)NC(=O)[C@H](Cc1ccc(O)cc1)NC(=O)[C@H](CC(=O)O)NC(=O)[C@H](CO)NC(=O)[C@@H](NC(=O)[C@H](Cc1ccccc1)NC(=O)[C@@H](N)[C@@H](C)O)[C@@H](C)CC)C(=O)N[C@@H](C)C(=O)N[C@@H](CC(C)C)C(=O)N[C@@H](CC(=O)O)C(=O)N[C@@H](CCCNC(=N)N)C(=O)N[C@H](C(=O)N[C@@H](CCCCNC(=O)CC[C@H](NC(=O)COCCOCCNC(=O)CCCCCCCCCCCCCCC(=O)O)C(=O)O)C(=O)N[C@@H](CCC(N)=O)C(=O)N[C@@H](CCC(N)=O)C(=O)N[C@@H](CC(=O)O)C(=O)N[C@@H](Cc1ccccc1)C(=O)N[C@H](C(=O)N[C@@H](CC(N)=O)C(=O)N[C@@H](Cc1c[nH]c2ccccc12)C(=O)N[C@@H](CC(C)C)C(=O)N[C@@H](CC(C)C)C(=O)N[C@@H](C)C(=O)N[C@@H](CCC(N)=O)C(=O)N[C@@H](CCCNC(=N)N)C(N)=O)C(C)C)[C@@H](C)CC [AT234] (HELM PEPTIDE1{T.F.I.S.D.Y.S.I.A.L.D.R.I.K.Q.Q.D.F.V.N.W.L.L.A.Q.R.[am]}|PEPTIDE2{[O=C(O)CCCCCCCCCCCCCCC(=O)[*:2]].[O=C(COCCOCCN[*:1])[*:2]].[gGlu]}$PEPTIDE1,PEPTIDE2,14:R3-3:R2$$$V2.0; N-terminus assumed)	0			Emax (human GIP receptor [1]; COS-7, read-out: cAMP agonism, Emax): 26%
CC[C@H](C)[C@H](NC(=O)[C@H](CO)NC(=O)[C@@H](N)Cc1ccc(O)cc1)C(=O)N[C@@H](C)C(=O)N[C@@H](CCSC)C(=O)N[C@@H](CC(=O)O)C(=O)N[C@@H](CCCCN)C(=O)N[C@H](C(=O)N[C@@H](CCCCNC(=O)CCCCCCCCCCCCCCC(=O)O)C(=O)N[C@@H](CCC(N)=O)C(=O)N[C@@H](CCC(N)=O)C(=O)N[C@@H](CC(=O)O)C(=O)N[C@@H](Cc1ccccc1)C(=O)N[C@H](C(=O)N[C@@H](CC(N)=O)C(=O)N[C@@H](Cc1c[nH]c2ccccc12)C(=O)N[C@@H](CC(C)C)C(=O)N[C@@H](CC(C)C)C(=O)N[C@@H](C)C(=O)N[C@@H](CCC(N)=O)C(=O)N[C@@H](CCCCN)C(N)=O)C(C)C)[C@@H](C)CC [AT357] (H-YSIAMDKIK(C16 diacid)QQDFVNWLLAQK-NH2; N-terminus assumed)	0	100.0	40	
CC[C@H](C)[C@H](N)C(=O)N[C@@H](CO)C(=O)N[C@@H](CC(=O)O)C(=O)N[C@@H](Cc1ccc(O)cc1)C(=O)N[C@@H](CO)C(=O)N[C@H](C(=O)N[C@@H](C)C(=O)N[C@@H](CCSC)C(=O)N[C@@H](CC(=O)O)C(=O)N[C@@H](CCCCN)C(=O)N[C@H](C(=O)N[C@@H](CCCCNC(=O)CCCCCCCCCCCCCCC(=O)O)C(=O)N[C@@H](CCC(N)=O)C(=O)N[C@@H](CCC(N)=O)C(=O)N[C@@H](CC(=O)O)C(=O)N[C@@H](Cc1ccccc1)C(=O)N[C@H](C(=O)N[C@@H](CC(N)=O)C(=O)N[C@@H](Cc1c[nH]c2ccccc12)C(=O)N[C@@H](CC(C)C)C(=O)N[C@@H](CC(C)C)C(=O)N[C@@H](C)C(=O)N[C@@H](CCC(N)=O)C(=O)N[C@@H](CCCCN)C(N)=O)C(C)C)[C@@H](C)CC)[C@@H](C)CC [AT354] (H-ISDYSIAMDKIK(C16 diacid)QQDFVNWLLAQK-NH2; N-terminus assumed)	0	100.0	91	IC50 (human GIP receptor [3]; cAMP antagonism, nM (IC50)): 10 nM
CC[C@H](C)[C@H](NC(=O)[C@H](CO)NC(=O)[C@H](Cc1ccc(O)cc1)NC(=O)[C@H](CC(=O)O)NC(=O)[C@@H](N)CO)C(=O)N[C@@H](C)C(=O)N[C@@H](CCSC)C(=O)N[C@@H](CC(=O)O)C(=O)N[C@@H](CCCCN)C(=O)N[C@H](C(=O)N[C@@H](CCCCNC(=O)CCCCCCCCCCCCCCC(=O)O)C(=O)N[C@@H](CCC(N)=O)C(=O)N[C@@H](CCC(N)=O)C(=O)N[C@@H](CC(=O)O)C(=O)N[C@@H](Cc1ccccc1)C(=O)N[C@H](C(=O)N[C@@H](CC(N)=O)C(=O)N[C@@H](Cc1c[nH]c2ccccc12)C(=O)N[C@@H](CC(C)C)C(=O)N[C@@H](CC(C)C)C(=O)N[C@@H](C)C(=O)N[C@@H](CCC(N)=O)C(=O)N[C@@H](CCCCN)C(N)=O)C(C)C)[C@@H](C)CC [AT355] (H-SDYSIAMDKIK(C16 diacid)QQDFVNWLLAQK-NH2; N-terminus assumed)	0	100.0	65	
AT356: GIP 9-30, C-term NH2, C16-diacid at position 18, [H18K] (DYSIAMDKIK(C16 diacid)QQDFVNWLLAQK-NH2; N-terminus assumed; SMILES CC[C@H](C)[C@H](NC(=O)[C@H](CO)NC(=O)[C@H](Cc1ccc(O)cc1)NC(=O)[C@@H](N)CC(=O)O)C(=O)N[C@@H](C)C(=O)N[C@@H](CCSC)C(=O)N[C@@H](CC(=O)O)C(=O)N[C@@H](CCCCN)C(=O)N[C@H](C(=O)N[C@@H](CCCCNC(=O)CCCCCCCCCCCCCCC(=O)O)C(=O)N[C@@H](CCC(N)=O)C(=O)N[C@@H](CCC(N)=O)C(=O)N[C@@H](CC(=O)O)C(=O)N[C@@H](Cc1ccccc1)C(=O)N[C@H](C(=O)N[C@@H](CC(N)=O)C(=O)N[C@@H](Cc1c[nH]c2ccccc12)C(=O)N[C@@H](CC(C)C)C(=O)N[C@@H](CC(C)C)C(=O)N[C@@H](C)C(=O)N[C@@H](CCC(N)=O)C(=O)N[C@@H](CCCCN)C(N)=O)C(C)C)[C@@H](C)CC)				cAMP antagonism, nM (IC50) (human GIP receptor [3]): No antagonism
